Source: patent publication US7238813B2, “Chemical compounds” (Smithkline Beecham Corporation, priority 2000, dated 2007)

What was measured:
[1] = molecular target: T1, GST-VEGFR2 (Homo sapiens, UniProt P35968); experiment: VEGF-R2 enzyme assay (VEGF-E), LANCE method; format: biochemical; settings: 75 μM ATP
T1 construct: GST-VEGFR2, baculovirus expressed recombinant constructs of the intracellular domains of human TIE2 tagged by GST; made in house
Experimental: VEGF-R2 Enzyme Assay (VEGF-E)
The VEGF enzyme assay used the LANCE method (Wallac) and GST-VEGFR2, baculovirus expressed recombinant constructs of the intracellular domains of human […] tagged by GST. […] The reaction was stopped by the addition of EDTA (final concentration 50 mM). Streptavidin linked-APC (allophycocyanin, Molecular Probe) and Europium-labeled anti-phosphorylated tyrosine antibody (Wallac) were then added at the final concentration of 15 nM and 1 nM, respectively. The APC signal was measured using an ARVO multilabel counter (Wallac Berthold, Japan). The percent inhibition of activity was calculated relative to blank control wells. The concentration of test compound that inhibits 50% of activity (IC50) was interpolated using nonlinear regression (Levernberg-Marquardt) and the equation, y=Vmax (1−x/(K+x))+Y2, where “K” was equal to the IC50. The IC50 values were converted to pIC50 values, i.e., −log IC50 in Molar concentration.

[2] = molecular target: T2, GST-TIE2 (intracellular domains of human TIE2) (Homo sapiens, UniProt Q02763); experiment: TIE-2 enzyme assay (TIE2-E), LANCE method; format: biochemical; settings: 80 uM ATP
T2 construct: made in house
Experimental: TIE-2Enzyme Assay (TIE2-E)
The TIE-2 enzyme assay used the LANCE method (Wallac) and GST-TIE2, baculovirus expressed recombinant constructs of the intracellular domains of human TIE2 (amino acids 762–1104, GenBank Accession # L06139) tagged by GST). […] This peptide phosphorylation was detected using the following procedure: for enzyme preactivation, GST-TIE2 was incubated for 30 mins at room temperature with 2 mM ATP, 5 mM MgCl2 and 12.5 mM DTT in 22.5 mM HEPES buffer (pH7.4). Preactivated GST-TIE2 was incubated for 30 mins at room temperature in 96 well plates with 1 μM D1-15 peptide, 80 uM ATP, 10 mM MgCl2, 0.1 mg/ml BSA and the test compound (diluted from a 10 mM stock in DMSO, final DMSO concentration was 2.4%) in 1 mM HEPES (pH7.4). The reaction was stopped by the addition of EDTA (final concentration 45 mM). Streptavidin linked-APC (allophycocyanin, Molecular Probe) and Europium-labeled anti-phosphorylated tyrosine antibody (Wallac) were then added at the final concentration of 17 μg/well and 2.1 μg/well, respectively. The APC signal was measured using an ARVO multilabel counter. (Wallac Berthold Japan). The percent inhibition of activity was calculated relative to blank control wells. The concentration of test compound that inhibits 50% of activity (IC50) was interpolated using nonlinear regression (Levernberg-Marquardt) and the equation, y=Vmax (1−x/(K+x))+Y2, where “K” was equal to the IC50. The IC50 values were converted to pIC50 values, i.e., −log IC50 in Molar concentration.

T1 sequence (P35968 786-1356 limits assumed): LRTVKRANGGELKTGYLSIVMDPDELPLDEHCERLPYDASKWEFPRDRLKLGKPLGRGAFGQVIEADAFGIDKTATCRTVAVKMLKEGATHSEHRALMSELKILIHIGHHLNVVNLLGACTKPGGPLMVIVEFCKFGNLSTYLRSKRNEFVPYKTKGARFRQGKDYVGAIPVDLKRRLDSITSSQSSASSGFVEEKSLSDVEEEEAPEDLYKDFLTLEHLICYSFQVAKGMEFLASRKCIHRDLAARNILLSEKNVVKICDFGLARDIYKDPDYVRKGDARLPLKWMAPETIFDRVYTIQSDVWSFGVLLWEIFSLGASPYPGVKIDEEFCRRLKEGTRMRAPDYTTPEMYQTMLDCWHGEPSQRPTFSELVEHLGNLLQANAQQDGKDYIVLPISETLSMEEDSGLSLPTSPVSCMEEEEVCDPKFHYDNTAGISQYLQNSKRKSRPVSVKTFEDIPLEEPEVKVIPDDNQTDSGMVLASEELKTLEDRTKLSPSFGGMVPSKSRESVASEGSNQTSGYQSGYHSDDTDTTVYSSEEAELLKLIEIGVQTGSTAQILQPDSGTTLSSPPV
T2 sequence (Q02763 762-1104): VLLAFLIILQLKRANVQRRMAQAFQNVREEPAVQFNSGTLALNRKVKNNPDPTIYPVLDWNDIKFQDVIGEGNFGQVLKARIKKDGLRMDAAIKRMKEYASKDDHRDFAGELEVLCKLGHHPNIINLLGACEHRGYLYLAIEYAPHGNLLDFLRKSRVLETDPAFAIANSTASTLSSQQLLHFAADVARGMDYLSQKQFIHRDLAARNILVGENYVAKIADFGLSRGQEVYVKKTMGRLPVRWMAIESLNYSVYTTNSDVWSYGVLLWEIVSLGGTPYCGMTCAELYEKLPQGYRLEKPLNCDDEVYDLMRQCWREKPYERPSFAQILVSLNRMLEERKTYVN

SMILES | IC50 [1] | TIE2-E [2] | IC50 [2]
COC(=O)Nc1nc2cc(Oc3ccc(NC(=O)Nc4ccc5c(c4)CCC5)cc3)ccc2[nH]1 [Example 127, Methyl N-(5-(4-((5-indanyl)aminocarbonylamino)phenoxy)-1H-benzimidazol-2-yl)carbamate] | < 100 nM |  | 
COC(=O)Nc1nc2cc(Sc3ccc(NC(=O)Nc4cc(C(C)(C)C)on4)cc3)ccc2[nH]1 [Example 130, Methyl N-(5-(4-((5-tert-butylisoxazole-3-yl)aminocarbonylamino)phenylthio)-1H-benzimidazol-2-yl)carbamate] | < 100 nM |  | 
Nc1nc2ccc(Oc3ccc(NC(=O)Nc4cc(C(F)(F)F)ccc4F)nc3)cc2n1Cc1ccccc1 [Example 113, 6-(6-((2-Fluoro-5-(trifluoromethyl)phenyl)aminocarbonylamino)-3-pyridyloxy)-1-benzyl-1H-benzimidazol-2-ylamine] |  |  | < 100 nM
COC(=O)Nc1nc2cc(Oc3cccc(NC(=O)Nc4ccccc4Oc4ccccc4)c3)ccc2[nH]1 [Example 124, Methyl N-(5-(3-((2-phenoxyphenyl)aminocarbonylamino)phenoxy)-1H-benzimidazol-2-yl)carbamate] | < 100 nM |  | 
CCCCNC(=O)Nc1nc2ccc(Oc3ccc(NC(=O)Nc4ccc(Cl)c(C(F)(F)F)c4)cc3)cc2s1 [Example 136, 1-(6-(4-((4-Chloro-3-(trifluoromethyl)phenyl)aminocarbonylamino)phenoxy)benzthiazol-2-yl)-3-(butyl)urea] | < 100 nM |  | 
O=C(Nc1ccc(Cl)cc1)Nc1nc2cc(Oc3ccc(NC(=O)Nc4cc(C(F)(F)F)ccc4F)cc3)ccc2[nH]1 [Example 134, 1-(5-(4-((2-Fluoro-5-(trifluoromethyl)phenyl)aminocarbonylamino)phenoxy)-1H-benzimidazol-2-yl)-3-(4-chlorophenyl)urea] | < 100 nM |  | 
CCCCNC(=O)Nc1nc2ccc(Oc3ccc(NC(=O)Nc4cc(C(F)(F)F)ccc4F)cc3)cc2s1 [Example 137, 1-(6-(4-((2-Fluoro-5-(trifluoromethyl)phenyl)aminocarbonylamino)phenoxy)benzthiazol-2-yl)-3-(butyl)urea] | < 100 nM |  | 
COC(=O)Nc1nc2cc(Oc3ccc(NC(=O)Nc4cc(C(C)(C)C)on4)cc3)ccc2[nH]1 [Example 128, Methyl N-(5-(4-((5-tert-butylisoxazole-3-yl)aminocarbonylamino)phenoxy)-1H-benzimidazol-2-yl)carbamate] | < 100 nM |  | 
COC(=O)Nc1nc2cc(Oc3cccc(NC(=O)Nc4ccccc4OC(F)(F)F)c3)ccc2[nH]1 [Example 116, Methyl N-(5-(3-((2-(trifluoromethoxy)phenyl)aminocarbonylamino)phenoxy)-1H-benzimidazol-2-yl)carbamate] | < 100 nM |  | 
O=C(Nc1ccc(Oc2ccc3[nH]c(NC(=O)Nc4cc(C(F)(F)F)ccc4F)nc3c2)cc1)Nc1cc(C(F)(F)F)ccc1F [Example 133, 1-(5-(4-((2-Fluoro-5-(trifluoromethyl)phenyl)aminocarbonylamino)phenoxy)-1H-benzimidazol-2-yl)-3-(2-fluoro-5-(trifluoromethyl)phenyl)urea] | < 100 nM |  | 
COC(=O)Nc1nc2ccc(C(=O)c3ccc(NC(=O)Nc4cc(C(F)(F)F)ccc4F)cc3)cc2[nH]1 [Example 78, Methyl N-(5-(4-((2-fluoro-5-(trifluoromethyl)phenyl)aminocarbonylamino)phenylcarbonyl)-1H-benzimidazol-2-yl)carbamate] | < 100 nM |  | 
COC(=O)Nc1nc2cc(Oc3cccc(NC(=O)Nc4cc(C(C)(C)C)on4)c3)ccc2[nH]1 [Example 129, Methyl N-(5-(3-((5-tert-butylisoxazole-3-yl)aminocarbonylamino)phenoxy)-1H-benzimidazol-2-yl)carbamate] | < 100 nM |  | 
COC(=O)Nc1nc2cc(Oc3cccc(NC(=O)Nc4cccc(Oc5ccccc5)c4)c3)ccc2[nH]1 [Example 60, Methyl N-(5-(3-((3-(phenoxy)phenyl)aminocarbonylamino)phenoxy)-1H-benzimidazol-2-yl)carbamate] | < 100 nM |  | 
COCCOCC(=O)Nc1nc2cc(Oc3ccc(NC(=O)Nc4nnc(N5CCOCC5)[nH]4)cc3)ccc2[nH]1 [Example 163, N-(5-(4-((5-Morpholino-1,3,4-triazol-2-yl)aminocarbonylamino)phenoxy)-1H-benzimidazol-2-yl)(2-(methoxy)ethoxy)acetamide] | 1000 to 10000 nM |  | 

The remaining lines, values ahead:

IC50 [1] | TIE2-E [2] | IC50 [2] | SMILES
< 100 nM |  |  | COC(=O)Nc1nc2cc(Oc3cccc(NC(=O)Nc4ccc(SC(F)(F)F)cc4)c3)ccc2[nH]1 [Example 117, Methyl N-(5-(3-((4-(trifluoromethylthio)phenyl)aminocarbonylamino)phenoxy)-1H-benzimidazol-2-yl)carbamate]
< 100 nM |  |  | COC(=O)Nc1nc2cc(Oc3cccc(NC(=O)Nc4ccc(Cl)c(C(F)(F)F)c4)c3)ccc2[nH]1 [Example 119, Methyl N-(5-(3-((4chloro-3-(trifluoromethyl)phenyl)aminocarbonylamino)phenoxy)-1H-benzimidazol-2-yl)carbamate]
< 100 nM |  |  | COC(=O)Nc1nc2cc(Oc3cccc(NC(=O)Nc4ccc(Oc5ccccc5)cc4)c3)ccc2[nH]1 [Example 125, Methyl N-(5-(3-((4-phenoxyphenyl)aminocarbonylamino)phenoxy)-1H-benzimidazol-2-yl)carbamate]
100 to 1000 nM |  |  | COC(=O)Nc1nc2cc(Oc3cccc(NC(=O)Nc4cc(Cl)ccc4Cl)c3)ccc2[nH]1 [Example 121, Methyl N-(5-(3-((2,5-dichlorophenyl)aminocarbonylamino)phenoxy)-1H-benzimidazol-2-yl)carbamate]
< 100 nM | − |  | COC(=O)Nc1nc2cc(Oc3ccc(NC(=O)Nc4ccc(F)cc4)cc3)ccc2[nH]1 [Example 63, Methyl N-(5-(4-((4-fluorophenyl)aminocarbonylamino)phenoxy)-1H-benzimidazol-2-yl)carbamate]
< 100 nM |  |  | COC(=O)Nc1nc2cc(Oc3cccc(NC(=O)Nc4cccc(SC(F)(F)F)c4)c3)ccc2[nH]1 [Example 58]
100 to 1000 nM |  |  | COC(=O)Nc1nc2cc(Oc3cccc(NC(=O)Nc4ccccc4C(F)(F)F)c3)ccc2[nH]1 [Example 118, Methyl N-(5-(3-((2-(trifluoromethyl)phenyl)aminocarbonylamino)phenoxy)-1H-benzimidazol-2-yl)carbamate]
100 to 1000 nM |  |  | COC(=O)Nc1nc2cc(Oc3ccc(NC(=O)Nc4cccc(Oc5ccccc5)c4)cc3)ccc2[nH]1 [Example 123, Methyl N-(5-(4-((3-phenoxyphenyl)aminocarbonylamino)phenoxy)-1H-benzimidazol-2-yl)carbamate]
< 100 nM |  |  | COC(=O)Nc1nc2cc(Oc3cccc(NC(=O)Nc4cccc(Br)c4)c3)ccc2[nH]1 [Example 59, Methyl N-(5-(3-((3-bromophenyl)aminocarbonylamino)phenoxy)-1H-benzimidazol-2-yl)carbamate]
< 100 nM |  |  | COC(=O)Nc1nc2cc(Oc3cccc(NC(=O)Nc4cccc(I)c4)c3)ccc2[nH]1 [Example 120, Methyl N-(5-(3-((3-iodophenyl)aminocarbonylamino)phenoxy)-1H-benzimidazol-2-yl)carbamate]
< 100 nM |  |  | COC(=O)Nc1nc2cc(Oc3cccc(NC(=O)Nc4ccc(Cl)cc4)c3)ccc2[nH]1 [Example 61, Methyl N-(5-(3-((4-chlorophenyl)aminocarbonylamino)phenoxy)-1H-benzimidazol-2-yl)carbamate]
< 100 nM |  | 1000 to 10000 nM | COC(=O)Nc1nc2cc(Oc3ccc(NC(=O)Nc4ccc(OC)cc4)cc3)ccc2[nH]1 [Example 62, Methyl N-(5-(4-((4-methoxyphenyl)aminocarbonylamino)phenoxy)-1H-benzimidazol-2-yl)carbamate]
